Test [1] deals with T1, GABA-A receptor; alpha-5/beta-3/gamma-2 (Homo sapiens, UniProt P18507+P28472+P31644).
T1 sequence (P18507 whole entry): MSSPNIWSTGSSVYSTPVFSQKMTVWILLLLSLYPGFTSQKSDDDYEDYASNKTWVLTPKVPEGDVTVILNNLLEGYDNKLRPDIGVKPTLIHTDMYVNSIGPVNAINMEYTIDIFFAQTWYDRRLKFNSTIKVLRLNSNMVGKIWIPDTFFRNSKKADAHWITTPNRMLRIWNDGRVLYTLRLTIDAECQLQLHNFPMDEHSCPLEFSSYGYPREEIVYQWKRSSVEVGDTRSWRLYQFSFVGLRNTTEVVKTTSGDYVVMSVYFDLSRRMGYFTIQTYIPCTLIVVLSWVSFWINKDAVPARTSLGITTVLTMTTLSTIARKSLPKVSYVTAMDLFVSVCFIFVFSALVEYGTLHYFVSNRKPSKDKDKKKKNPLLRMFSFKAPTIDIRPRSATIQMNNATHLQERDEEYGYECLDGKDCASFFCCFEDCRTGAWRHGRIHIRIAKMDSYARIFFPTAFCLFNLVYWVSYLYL
T1 sequence (P28472 whole entry): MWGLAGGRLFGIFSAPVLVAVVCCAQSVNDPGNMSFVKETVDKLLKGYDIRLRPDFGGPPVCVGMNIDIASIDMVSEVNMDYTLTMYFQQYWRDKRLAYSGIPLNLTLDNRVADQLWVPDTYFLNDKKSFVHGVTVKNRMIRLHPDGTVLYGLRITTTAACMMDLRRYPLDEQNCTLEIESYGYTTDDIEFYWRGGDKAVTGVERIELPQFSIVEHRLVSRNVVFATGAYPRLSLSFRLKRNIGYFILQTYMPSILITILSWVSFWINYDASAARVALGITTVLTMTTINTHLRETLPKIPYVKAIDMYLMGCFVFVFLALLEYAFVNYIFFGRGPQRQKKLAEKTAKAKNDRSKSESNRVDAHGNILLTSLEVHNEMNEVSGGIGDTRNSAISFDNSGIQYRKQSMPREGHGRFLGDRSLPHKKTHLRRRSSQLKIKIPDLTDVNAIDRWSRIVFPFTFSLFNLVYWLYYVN
T1 sequence (P31644 whole entry): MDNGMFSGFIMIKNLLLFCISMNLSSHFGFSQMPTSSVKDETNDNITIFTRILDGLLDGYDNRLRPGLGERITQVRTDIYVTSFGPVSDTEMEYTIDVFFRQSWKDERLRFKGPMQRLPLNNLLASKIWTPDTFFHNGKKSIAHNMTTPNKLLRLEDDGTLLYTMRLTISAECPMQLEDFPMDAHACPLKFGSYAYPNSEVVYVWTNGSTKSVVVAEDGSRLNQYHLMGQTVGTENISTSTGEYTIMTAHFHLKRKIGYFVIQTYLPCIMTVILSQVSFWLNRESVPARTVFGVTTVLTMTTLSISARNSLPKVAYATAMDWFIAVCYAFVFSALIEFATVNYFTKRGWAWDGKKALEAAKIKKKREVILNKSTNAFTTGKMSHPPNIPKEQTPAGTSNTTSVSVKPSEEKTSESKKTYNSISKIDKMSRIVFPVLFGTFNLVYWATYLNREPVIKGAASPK
Nature of the test: Binding affinity for human GABA-A receptor alpha-5-beta-3-gamma-2 subunits in L(tk-) cells. The format is cell-based.

For test [2], the target named is T2, GABA-A receptor; alpha-2/beta-3/gamma-2 (Homo sapiens, UniProt P18507+P28472+P47869).
T2 sequence (P18507 whole entry): T1 sequence (P18507 whole entry)
T2 sequence (P28472 whole entry): T1 sequence (P28472 whole entry)
T2 sequence (P47869 whole entry): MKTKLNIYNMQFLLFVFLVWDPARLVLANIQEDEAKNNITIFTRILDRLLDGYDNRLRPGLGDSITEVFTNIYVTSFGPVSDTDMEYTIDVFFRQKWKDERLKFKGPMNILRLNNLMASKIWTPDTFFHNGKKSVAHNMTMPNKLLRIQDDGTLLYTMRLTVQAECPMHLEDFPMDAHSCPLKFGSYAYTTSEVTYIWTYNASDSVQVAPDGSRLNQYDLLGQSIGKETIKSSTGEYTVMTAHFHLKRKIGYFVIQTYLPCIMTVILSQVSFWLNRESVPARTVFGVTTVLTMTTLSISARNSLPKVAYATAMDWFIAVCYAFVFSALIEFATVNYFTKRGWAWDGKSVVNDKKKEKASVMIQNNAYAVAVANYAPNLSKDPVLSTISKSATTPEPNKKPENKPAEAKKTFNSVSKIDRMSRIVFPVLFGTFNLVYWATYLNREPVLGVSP
The test can be described thus: Binding affinity for human GABA-A receptor alpha-2-beta-3-gamma-2 subunits in L(tk-) cells. It is filed as cell-based.

Test [3] addresses T3, GABA-A receptor; alpha-3/beta-3/gamma-2 (Homo sapiens, UniProt P18507+P28472+P34903).
T3 sequence (P18507 whole entry): T1 sequence (P18507 whole entry)
T3 sequence (P28472 whole entry): T1 sequence (P28472 whole entry)
T3 sequence (P34903 whole entry): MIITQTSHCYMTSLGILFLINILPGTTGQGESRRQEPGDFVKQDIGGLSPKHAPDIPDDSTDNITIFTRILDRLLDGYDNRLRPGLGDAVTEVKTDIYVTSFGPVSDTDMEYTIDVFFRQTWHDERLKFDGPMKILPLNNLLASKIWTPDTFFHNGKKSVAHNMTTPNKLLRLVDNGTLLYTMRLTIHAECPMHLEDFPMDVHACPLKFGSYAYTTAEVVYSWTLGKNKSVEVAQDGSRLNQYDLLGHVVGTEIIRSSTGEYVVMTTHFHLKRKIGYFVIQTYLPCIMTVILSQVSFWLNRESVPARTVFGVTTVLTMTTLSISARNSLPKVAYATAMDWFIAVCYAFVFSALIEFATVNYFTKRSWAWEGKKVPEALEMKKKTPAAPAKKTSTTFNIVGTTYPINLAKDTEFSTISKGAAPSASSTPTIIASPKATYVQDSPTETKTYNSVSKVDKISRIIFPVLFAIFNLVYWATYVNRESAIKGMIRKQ
The test can be described thus: Binding affinity for human GABA-A receptor alpha-3-beta-3-gamma-2 subunits in L(tk-) cells. The format is cell-based.

Test [4] addresses T4, GABA-A receptor; alpha-1/beta-3/gamma-2 (Homo sapiens, UniProt P14867+P18507+P28472).
T4 sequence (P14867 whole entry): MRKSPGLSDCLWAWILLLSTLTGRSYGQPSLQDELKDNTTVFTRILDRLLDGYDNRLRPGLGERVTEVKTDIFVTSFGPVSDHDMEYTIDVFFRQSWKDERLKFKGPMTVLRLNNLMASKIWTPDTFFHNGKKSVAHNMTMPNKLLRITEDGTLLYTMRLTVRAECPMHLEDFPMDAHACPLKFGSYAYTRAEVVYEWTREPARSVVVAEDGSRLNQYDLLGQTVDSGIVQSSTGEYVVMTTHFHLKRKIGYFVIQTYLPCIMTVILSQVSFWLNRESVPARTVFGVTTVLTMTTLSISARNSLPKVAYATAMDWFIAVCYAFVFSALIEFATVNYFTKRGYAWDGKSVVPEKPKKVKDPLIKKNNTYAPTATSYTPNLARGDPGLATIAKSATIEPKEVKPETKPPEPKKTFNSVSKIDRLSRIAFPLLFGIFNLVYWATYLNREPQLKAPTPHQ
T4 sequence (P18507 whole entry): T1 sequence (P18507 whole entry)
T4 sequence (P28472 whole entry): T1 sequence (P28472 whole entry)
Nature of the test: Binding affinity for human GABA-A receptor alpha-1-beta-3-gamma-2 subunits in L(tk-) cells.

Ki data for 27 molecules are collected here from ChEMBL document CHEMBL1149126, “3-phenyl-6-(2-pyridyl)methyloxy-1,2,4-triazolo[3,4-a]phthalazines and analogues: high-affinity gamma-aminobutyric acid-A benzodiazepine receptor ligands with alpha 2, alpha 3, and alpha 5-subtype binding selectivity over alpha 1” (J Med Chem, 2004).

Broadly, the Ki is a dissociation constant, usually derived from enzyme kinetics or from competition with a known ligand. The low end stands for a stronger hold on the target, the high end for a looser hold on the target. As to `c1ccc(CCOc2nn3c(-c4ccccc4)nnc3c3ccccc23)cc1`, the inhibition constant (Ki) is more than 1000 nM in test [1], more than 1000 nM in test [2], 720 nM in test [3] and 380 nM in test [4].
Take `CN(C)Cc1nnc2c3ccccc3c(OCc3ccccn3)nn12`: the Ki stood at 160 nM in test [1], 620 nM in test [2], 840 nM in test [3] and 140 nM in test [4].
`c1ccc(CCCOc2nn3c(-c4ccccc4)nnc3c3ccccc23)cc1`: the Ki was more than 1000 nM in test [1], more than 1000 nM in test [2], 420 nM in test [3] and 300 nM in test [4].
Turning to `Cc1ccc(COc2nn3c(-c4ccccc4)nnc3c3ccccc23)nc1`, the Ki turned out to be 1.1 nM in test [1], 3.6 nM in test [2], 4.3 nM in test [3] and 4.8 nM in test [4].
The corresponding values for `CN(Cc1ccccc1)c1nn2c(-c3ccccc3)nnc2c2ccccc12` are 240 nM, more than 1000 nM, more than 1000 nM and 500 nM.
As to `CCOC(=O)c1ncn2c1[C@@H]1CCCN1C(=O)c1cc(OC)ccc1-2`, the Ki in test [1] amounted to 0.4 nM; in test [2], 22 nM; in test [3] it was 11 nM; in test [4], 44 nM.
For `c1ccc(Oc2nn3c(-c4ccccc4)nnc3c3ccccc23)cc1`, in that order: more than 1000 nM, more than 1000 nM, more than 1000 nM and more than 1000 nM.
For `c1ccc(-c2nnc3c4ccccc4c(OCc4ccoc4)nn23)cc1`, in that order: 13 nM, 38 nM, 21 nM and 26 nM.
`Clc1cccc(COc2nn3c(-c4ccccc4)nnc3c3ccccc23)c1`: the Ki in test [1], in test [2], in test [3] and in test [4] was more than 1000 nM each time.
Regarding `COc1ccc(COc2nn3c(-c4ccccc4)nnc3c3ccccc23)cc1`, the Ki was found to be 160 nM in test [1], 220 nM in test [2], 190 nM in test [3] and 200 nM in test [4].
With `c1ccc(CNc2nn3c(-c4ccccc4)nnc3c3ccccc23)cc1`, the inhibitory constant (Ki) in test [1], in test [2], in test [3] and in test [4] was more than 1000 nM each time.
In the case of `c1ccc(-c2nnc3c4ccccc4c(OCC4CCNCC4)nn23)cc1`, the Ki in test [1] stood at 30 nM; in test [2], 40 nM; in test [3], 37 nM; in test [4] it was 32 nM.
The corresponding values for `Cc1ccnc(COc2nn3c(-c4ccccc4)nnc3c3ccccc23)c1` are 3.7 nM, 11 nM, 10 nM and 18 nM.
`COc1ccccc1COc1nn2c(-c3ccccc3)nnc2c2ccccc12`: the Ki in test [1], in test [2], in test [3] and in test [4] was more than 1000 nM each time.
`c1ccc(CSc2nn3c(-c4ccccc4)nnc3c3ccccc23)cc1`: the Ki in test [1], in test [2], in test [3] and in test [4] was more than 1000 nM each time.
In the case of `CCCc1nnc2c3ccccc3c(OCc3ccccn3)nn12`, the Ki was 19 nM in test [1], 120 nM in test [2], 52 nM in test [3] and 160 nM in test [4].
With `c1ccc(-c2nnc3c4ccccc4c(OCc4ccncn4)nn23)cc1`, the Ki worked out at 0.5 nM in test [1], 2.9 nM in test [2], 1.3 nM in test [3] and 2.3 nM in test [4].
The corresponding values for `COc1nn2c(-c3ccccc3)nnc2c2ccccc12` are 39 nM, 160 nM, 120 nM and 140 nM.
The corresponding values for `Clc1ccccc1COc1nn2c(-c3ccccc3)nnc2c2ccccc12` are 560 nM, 580 nM, 260 nM and more than 1000 nM.
For `CCc1nnc2c3ccccc3c(OCc3ccccn3)nn12`, in that order: 16 nM, 130 nM, 53 nM and 250 nM.
As to `c1ccc(-c2nnc3c4ccccc4c(OCc4cccs4)nn23)cc1`, the Ki in test [1] stood at 170 nM; in test [2], 560 nM; in test [3], 300 nM; in test [4], 240 nM.
`O=C1c2ccccc2C(=O)N1CCn1c(=O)c2ccccc2c(=O)n1Cc1ccccc1`: the Ki in test [1] worked out at 4800 nM; in test [2], 1800 nM; in test [3] it was 1400 nM.
For the molecule `COc1ccc(-c2nnc3c4ccccc4c(OCc4ccccc4)nn23)cc1`, the values for the Ki in test [1], in test [2] and in test [3] were 72 nM, 850 nM and 170 nM, respectively.
For `Cc1ccc(-c2nnc3c4ccccc4c(OCc4ccccn4)nn23)cc1`, in that order: 4 nM, 16 nM and 11 nM.
`Cc1ccc(-c2nc3ccc(C)cn3c2CC(=O)N(C)C)cc1` [ZOLPIDEM]: in test [1], the Ki was more than 15000 nM.
On to `COCCN(CCOC)c1nn2c(-c3ccc(OC)cc3)nnc2c2ccccc12`, for which the Ki in test [1] stood at 80 nM; in test [2], 41 nM; in test [3], 41 nM.
Take `c1ccc(-c2nnc3c4ccccc4c(OCc4cccnn4)nn23)cc1`: the Ki in test [1] came out at 0.15 nM; in test [3] it was 0.37 nM; in test [4], 0.82 nM.
